{"source": "patent US20120100077A1", "about": "“MIXTURE OF AMPHIPATHIC MOLECULES AND METHOD FOR MODIFYING CELL MEMBRANES BY MEANS OF FUSION” (priority 2009, published 2012)", "key": {"cell membrane [1]": {"tested_on": "cell membrane", "assay": "Fusion quality of R groups bound to amphipathic molecules B in the fusion mixture", "experimental": "(§1) After homogenization in the organic solvent, the organic solvent should be removed.\n(§2) The dried mixture is taken up in an aqueous buffer solution, preferably having a pH value of 7, and is homogenized once more. Advantageously a liposome forms, which comprises the molecule types that were added. Molecules of molecule types E and F can likewise be added.\n(§3) According to the actual method, the fusion mixture is diluted with a cell medium, e.g. 1:100 (mixture:cell medium v/v), homogenized once more, and added to the cells.\n(§4) To this end it is sufficient for the cells to be brought in contact with the mixture for approximately 1 to 60 minutes, and in the case of tissue samples, for 60 to 120 minutes, for example. A cell washing step should then be incorporated."}, "cell membrane [2]": {"tested_on": "cell membrane", "experimental": "as §1, §2, §3, §4"}, "[3]": {"conditions": "R group covalently bound to lipid (molecule type B)"}}, "note": "Where two headings read alike, the source gives them in different places.", "data": [{"compound": "CCCCCCCCCCCCCCCCCCN1C(=CC=Cc2oc3ccccc3[n+]2CCCCCCCCCCCCCCCCCC)Oc2ccccc21.[O-][Cl+3]([O-])([O-])[O-]", "note": "[DiO per se, DiOC18(3)3,3′-dioctadecyloxacarbocyanine perchlorate]", "values": [{"measurement": "Fusion quality", "setting": "cell membrane [1]; [3]", "result": 1}]}, {"compound": "CCCCCCCC/C=C\\CCCCCCCC(=O)OC[C@H](COP(=O)(O)OCCNS(=O)(=O)c1ccc(-c2c3ccc(N(CC)CC)cc3[o+]c3cc(N(CC)CC)ccc23)c(S(=O)(=O)[O-])c1)OC(=O)CCCCCCC/C=C\\CCCCCCCC.CCN(CC)CC", "note": "[LR, Lissamine rhodamine B 1,2-diolenoyl-sn-glycero-3-phosphoethanolamine, (triethylammonium salt)]", "values": [{"measurement": "Fusion quality", "setting": "cell membrane [1]", "result": 1}]}, {"compound": "CCCCCCCC/C=C\\CCCCCCCC(=O)OC[C@H](COP(=O)(O)OCCNc1ccc([N+](=O)[O-])c2nonc12)OC(=O)CCCCCCC/C=C\\CCCCCCCC.CCN(CC)CC", "note": "[NBD, N-(7-nitrobenz-2-oxa-1,3-diazol-4-yl)-1,2-diolenoyl-sn-glycero-3-phosphoethanolamine (triethylammonium salt)]", "values": [{"measurement": "Fusion quality", "setting": "cell membrane [1]", "result": 2}]}, {"compound": "CCCCCCCC/C=C\\CCCCCCCC(=O)OC[C@H](COP(=O)(O)OCCNC(=O)OCCOCCOCCOCCOCCOCCOCCOCCOCCOCCOCCOCCOCCOCCOCCOCCOCCOCCOCCOCCOCCOCCOCCOCCOCCOCCOCCOCCOCCOCCOCCOCCOCCOCCOCCOCCOCCOCCOCCOCCOCCOCCOCCOCCOCCOC)OC(=O)CCCCCCC/C=C\\CCCCCCCC.N", "note": "[PEG(2000), 1,2-dioleoyl-sn-glycero-3-phosphoethanolamine-N-[methoxy(polyethylene glycol)-2000](ammonium salt)]", "values": [{"measurement": "Fusion quality", "setting": "cell membrane [1]; [3]", "result": 6}, {"measurement": "toxic", "setting": "cell membrane [1]; [3]", "result": "toxic"}]}, {"compound": "CCCCCCCC/C=C\\CCCCCCCC(=O)OC[C@H](COP(=O)(O)OCCNC(=O)CCCCCNC(=O)CCCCC1SCC2NC(=O)NC21)OC(=O)CCCCCCC/C=C\\CCCCCCCC", "note": "(stereo partly drawn) [capBiotin, 1,2-dioleoyl-sn-glycero-3-phosphoethanolamine-N-cap-biotin]", "values": [{"measurement": "Fusion quality", "setting": "cell membrane [1]", "result": 6}, {"measurement": "function as fusion-inducing molecule type B", "setting": "cell membrane [1]", "result": "do not, however, function"}]}, {"compound": "CCCCC/C=C\\C/C=C\\C/C=C\\C/C=C\\CCCC(=O)O[C@H](COC(=O)CCCCCCCCCCCCCCCCC)COP(=O)([O-])O[C@H]1C(O)C(O)C(O)[C@@H](O)C1O.[Na+]", "note": "(stereo partly drawn) [inositol, L-α-phosphatidylinositol (sodium salt)]", "values": [{"measurement": "function as fusion-inducing molecule type B", "setting": "cell membrane [1]", "result": "non-functional"}, {"measurement": "Fusion quality", "setting": "cell membrane [1]; [3]", "result": 6}, {"measurement": "toxic", "setting": "cell membrane [1]; [3]", "result": "toxic"}]}, {"compound": "c1cc2ccc3cccc4ccc(c1)c2c34", "note": "[pyrene]", "values": [{"measurement": "toxic", "setting": "cell membrane [2]", "result": "5(toxic)"}]}, {"compound": "Texas Red 1,2-dihexadecanoyl-sn-glycero-3-phosphoethanolamine (triethylammonium salt) [Texas-Red]", "values": [{"measurement": "Fusion quality", "setting": "cell membrane [1]; [3]", "result": 1}]}]}
